Results from US5565616A (priority 1994, dated 1996).
Like-named read-outs stand apart in the source and are kept apart here.

How the values were obtained:
[1] = Sample pH before SCWO, after five-minute reactor residence time and after reactor cool down; format: physicochemical
Description: Fourteen tests were conducted to determine the by-product distribution of DMMP during SCWO at different oxygen concentrations in the presence of additives. Test conditions and procedures were the same as described in Example 1. Additive concentrations were based on achieving a 1:1 molar ratio of Na^+ ions to DMMP. Based on an initial concentration of DMMP of 10,000 mg/L, the initial concentrations of each additive were 3,224 mg/L for NaOH, 4,271 mg/L for Na2 CO3 and 15.4 g/L for Na2 B4 O7 (as Na2 B4 O7.10H2 O).
The pH of each sample was measured within one hour of sample collection. The presence of the additive affected the pH of the sample collected after a five minute reactor residence time only slightly. Since the pH of the initial solution had increased upon addition of the additive, it was expected that the pH of the sample collected at supercritical conditions would also increase. However, the effect was only slightly obvious due most likely to the precipitation of the additives at supercritical conditions. After reactor cool down, the pH of samples collected after cool down increased in the presence of the additive. The pH increase which occurred between the sample collected after five minutes reactor residence time and after reactor cool down was a result of the dissolution of precipitated additive. It is believed that sodium hydroxide, sodium carbonate and sodium borate dissolved after reactor cool down and neutralized the acidic solution which was observed after the five minute reactor residence time.

[2] = Source text: Calculations are based on the reported first-order reaction kinetic model
[3] = cited from earlier work
[4] = cited from earlier work; for Pyridine Conversion: 27.6 MPa
[5] = first-order oxidation, 24.6 MPa, 530-700 °C

## O.O.O.O.O.O.O.O.O.O.[Na+].[Na+].[O-]B1OB2OB([O-])OB(O1)O2 [Na2 B4 O7, sodium borate]
[1]; hydrolysis
  pH, 5 Min. Reactor Resid. Time: 2.8
  pH, After Reactor Cool Down: 7.0
  pH, Initial: 9
[1]; partial oxidation
  pH, 5 Min. Reactor Resid. Time: 3.2
  pH, After Reactor Cool Down: 7.3
  pH, Initial: 9

## N [ammonia]
[2]; 400 °C
  Reactor Residence Time Required to Achieve 9% Conversion: 774 min
  Reactor Residence Time Required to Achieve 90% Conversion: 18888 min
  Reactor Residence Time Required to Achieve 99% Conversion: 37775 min
  Reactor Residence Time Required to Achieve 99.9% Conversion: 56663 min
  Reactor Residence Time Required to Achieve 99.99% Conversion: 75551 min
[2]; 450 °C
  Reactor Residence Time Required to Achieve 9% Conversion: 111 min
  Reactor Residence Time Required to Achieve 90% Conversion: 2710 min
  Reactor Residence Time Required to Achieve 99% Conversion: 5421 min
  Reactor Residence Time Required to Achieve 99.9% Conversion: 8131 min
  Reactor Residence Time Required to Achieve 99.99% Conversion: 10842 min
[2]; 500 °C
  Reactor Residence Time Required to Achieve 9% Conversion: 20 min
  Reactor Residence Time Required to Achieve 90% Conversion: 500 min
  Reactor Residence Time Required to Achieve 99% Conversion: 1000 min
  Reactor Residence Time Required to Achieve 99.9% Conversion: 1500 min
  Reactor Residence Time Required to Achieve 99.99% Conversion: 2000 min
[2]; 550 °C
  Reactor Residence Time Required to Achieve 9% Conversion: 5 min
  Reactor Residence Time Required to Achieve 90% Conversion: 113 min
  Reactor Residence Time Required to Achieve 99% Conversion: 227 min
  Reactor Residence Time Required to Achieve 99.9% Conversion: 340 min
  Reactor Residence Time Required to Achieve 99.99% Conversion: 453 min
[2]; 600 °C
  Reactor Residence Time Required to Achieve 9% Conversion: 0.1 min
  Reactor Residence Time Required to Achieve 90% Conversion: 3 min
  Reactor Residence Time Required to Achieve 99% Conversion: 7 min
  Reactor Residence Time Required to Achieve 99.9% Conversion: 10 min
  Reactor Residence Time Required to Achieve 99.99% Conversion: 13 min
[2]; below 450 °C
  reactor residence time required to convert 10% ammonia: at least two hours
[3]; [5]
  activation energy: 37.5 kcal/mol
  pre-exponential factor: 3.16e+06 s⁻¹
[3]; supercritical water
  temperature at which oxidation rate becomes appreciable: greater than 550 °C

## c1ccncc1 [pyridine]
[4]; Test 513: 522 °C, 6.6 sec, 1990 mg/L, O2 0.024 mole/L
  Pyridine Conversion: 74%
[4]; Test 516: 499 °C, 7.1 sec, 1990 mg/L, O2 0.026 mole/L
  Pyridine Conversion: 66%
[4]; Test 524: 499 °C, 7.1 sec, 3050 mg/L, O2 0.031 mole/L
  Pyridine Conversion: 75%
[4]; Test 525: 475 °C, 7.8 sec, 1990 mg/L, O2 0.029 mole/L
  Pyridine Conversion: 25%
[4]; Test 529: 451 °C, 8.8 sec, 3050 mg/L, O2 0.038 mole/L
  Pyridine Conversion: 6%
[4]; Test 541: 522 °C, 6.6 sec, 3050 mg/L, O2 0.027 mole/L
  Pyridine Conversion: 94%
[4]; Test 542: 474 °C, 7.8 sec, 3050 mg/L, O2 0.035 mole/L
  Pyridine Conversion: 22%
[4]; Test 661: 527 °C, 3.8 sec, 3530 mg/L, O2 0.010 mole/L
  Pyridine Conversion: 55%
[4]; Test 668: 525 °C, 3.9 sec, 3530 mg/L, O2 0.014 mole/L
  Pyridine Conversion: 53%
[4]; Test 676: 527 °C, 3.8 sec, 3530 mg/L, O2 0.020 mole/L
  Pyridine Conversion: 68%
[4]; at 524 °C (Test No. 524)
  pyridine converted: 75%

## sodium hydroxide [NaOH]
[1]; hydrolysis
  pH, 5 Min. Reactor Resid. Time: 2.1
  pH, After Reactor Cool Down: 5.3
  pH, Initial: 12.3
[1]; oxidation
  pH, 5 Min. Reactor Resid. Time: 3.6
  pH, After Reactor Cool Down: 5.0
  pH, Initial: 12.3
[1]; partial oxidation
  pH, 5 Min. Reactor Resid. Time: 2.2
  pH, After Reactor Cool Down: 6.0
  pH, Initial: 12.3
